Data: ChEMBL document CHEMBL1201862, “PubChem BioAssay data set” (2004)
Calls of active or inactive are those of the source.

Assays:
Genome polyprotein = Genome polyprotein (dengue virus type 2, UniProt P29990); assay: flavivirus cap methylation enzyme inhibition – biochemical, confirmation dose response, primary screen (AID 588689); type: functional
[1] = A cytotoxicity screen of small molecule inhibitors of the PhoP region in Salmonella typhi identified in the primary screen. [Related pubchem assays: 1850, 1864, 1985 ]; type: functional
[2] = molecular target: Luciferin 4-monooxygenase (Photinus pyralis, UniProt P08659); assay: inhibition of purified Photinus pyralis luciferase – biochemical, luminescence, dose response (AID 1891)
[3] = Luminescence Cell-Based Dose Confirmation HTS to Identify Inhibitors of Platelet Dense Granule Release. [Related pubchem assays: 1663 (Primary HTS), 1678 (Summary of Project)]; type: functional
[4] = molecular target: T1, Heat shock factor protein 1 (Mus musculus, UniProt P38532); assay: decrease of HSF1-responsive luciferase luminescence – cell-based, NIH3T3, dose retest, confirmation (AID 2382); type: functional;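 note: NIH3T3 fibroblasts with HSF1-driven luciferase reporter stressed by proteasome inhibitor MG132; luminescence from HSF1-driven luciferase expression after 8 hours of MG132 stress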
T1 sequence (P38532 whole entry): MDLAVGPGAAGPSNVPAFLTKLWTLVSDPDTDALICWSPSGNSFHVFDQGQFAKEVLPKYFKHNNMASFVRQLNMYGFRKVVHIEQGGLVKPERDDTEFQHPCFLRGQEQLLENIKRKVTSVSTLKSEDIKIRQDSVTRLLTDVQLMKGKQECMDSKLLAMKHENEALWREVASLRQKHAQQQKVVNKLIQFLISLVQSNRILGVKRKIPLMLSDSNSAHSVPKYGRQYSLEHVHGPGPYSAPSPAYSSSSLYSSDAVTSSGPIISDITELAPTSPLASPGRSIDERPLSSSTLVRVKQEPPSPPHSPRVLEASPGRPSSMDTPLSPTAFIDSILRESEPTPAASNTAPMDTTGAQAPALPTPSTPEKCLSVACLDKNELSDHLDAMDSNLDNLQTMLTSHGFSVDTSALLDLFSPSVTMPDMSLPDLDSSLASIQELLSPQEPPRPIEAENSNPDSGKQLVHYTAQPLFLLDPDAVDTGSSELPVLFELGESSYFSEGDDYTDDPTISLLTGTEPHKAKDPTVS

[5] = molecular target: T2, DNA repair and recombination protein RAD54-like (Homo sapiens, UniProt Q92698); assay: RAD54 Holliday junction migration blockers – biochemical, fluorescence, cherry-picked samples, dose series, confirmation (AID 651657); type: functional
T2 sequence (Q92698 whole entry): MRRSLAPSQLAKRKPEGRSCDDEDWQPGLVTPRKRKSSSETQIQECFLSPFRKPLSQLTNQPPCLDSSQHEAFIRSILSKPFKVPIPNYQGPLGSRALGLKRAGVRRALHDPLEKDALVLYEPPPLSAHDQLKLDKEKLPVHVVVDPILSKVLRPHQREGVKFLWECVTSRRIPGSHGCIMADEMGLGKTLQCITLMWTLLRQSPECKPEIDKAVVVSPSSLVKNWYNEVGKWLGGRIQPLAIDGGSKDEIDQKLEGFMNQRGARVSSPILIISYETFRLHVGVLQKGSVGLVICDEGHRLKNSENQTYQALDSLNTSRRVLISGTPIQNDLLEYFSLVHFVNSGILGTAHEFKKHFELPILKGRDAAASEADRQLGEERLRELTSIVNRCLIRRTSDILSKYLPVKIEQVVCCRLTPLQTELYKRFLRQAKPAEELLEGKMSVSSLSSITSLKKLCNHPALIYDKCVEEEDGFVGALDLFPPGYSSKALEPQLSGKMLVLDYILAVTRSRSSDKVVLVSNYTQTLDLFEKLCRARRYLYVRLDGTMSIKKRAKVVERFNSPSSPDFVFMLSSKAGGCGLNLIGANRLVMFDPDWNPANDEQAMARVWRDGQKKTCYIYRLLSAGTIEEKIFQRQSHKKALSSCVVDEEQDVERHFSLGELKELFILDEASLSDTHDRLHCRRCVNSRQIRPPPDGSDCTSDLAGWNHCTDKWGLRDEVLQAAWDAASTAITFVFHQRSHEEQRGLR

[6] = molecular target: T3, DNA repair protein RAD52 homolog (Homo sapiens, UniProt P43351); type: functional, biochemical
T3 sequence (P43351 whole entry): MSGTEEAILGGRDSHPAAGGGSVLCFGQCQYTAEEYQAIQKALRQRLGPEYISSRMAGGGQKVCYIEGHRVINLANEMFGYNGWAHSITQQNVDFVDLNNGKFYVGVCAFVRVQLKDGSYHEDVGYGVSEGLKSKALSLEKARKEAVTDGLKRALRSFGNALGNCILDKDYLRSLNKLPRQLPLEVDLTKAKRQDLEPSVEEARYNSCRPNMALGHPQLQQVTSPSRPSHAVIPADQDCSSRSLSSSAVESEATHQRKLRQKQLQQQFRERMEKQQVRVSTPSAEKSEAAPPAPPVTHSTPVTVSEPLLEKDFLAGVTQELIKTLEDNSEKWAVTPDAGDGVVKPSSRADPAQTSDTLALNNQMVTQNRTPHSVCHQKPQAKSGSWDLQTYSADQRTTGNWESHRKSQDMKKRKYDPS

[7] = Trypanosoma cruzi growth suppression in host cells – NIH3T3 host cells, beta-gal luminescence, confirmation (AID 2044); type: functional, cell-based;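 note: intracellular parasites grown in NIH/3T3 mouse fibroblasts as host cells; luminescent beta-galactosidase reporter signal from transgenic T. cruzi replicating inside host cells; inhibitors lower the luminescence signal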
[8] = NIH3T3 cell viability loss – ATP luminescence, mouse fibroblasts, counter-screen, dose response (AID 2010); type: functional, cell-based; conditions: NIH3T3;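 note: cells exposed to compound for about 90 hours before reading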
Cytochrome P450 2C19 = Cytochrome P450 2C19 (Homo sapiens, UniProt P33261); assay: Cytochrome panel assay with activity outcomes. Panel member name: p450-cyp2c19 Compounds with AC50 equal or less than 10 uM are considered active; type: functional; conditions: read-out: AC50
[9] = molecular target: Peroxisome proliferator-activated receptor gamma/Nuclear receptor coactivator 1 (Homo sapiens, UniProt P37231); assay: (§1) TR-FRET dose response biochemical High Throughput Screening assay for agonists of the steroid receptor coactivator 1 (SRC-1) recruitment by the peroxisome proliferator-activated receptor gamma (PPAR gamma): non-selective agonists. [Related pubchem assays (depositor defined):AID1300, AID1808, AID504735, AID631]; type: protein assay
[10] = molecular target: Peroxisome proliferator-activated receptor gamma/Nuclear receptor coactivator 3 (Homo sapiens, UniProt P37231); assay: as §1, with “3 (SRC-3)” for “1 (SRC-1)”, “assays: 1301 (Confirmation screen.), 1048 (Primary screen.)]” for “assays (depositor defined):AID1300, AID1808, AID504735, AID631]”; type: functional
[11] = molecular target: Peroxisome proliferator-activated receptor gamma/Nuclear receptor coactivator 2 (Homo sapiens, UniProt P37231); assay: TR-FRET dose response biochemical High Throughput Screening assay for agonists of the steroid receptor coactivator 2 (SRC-2) recruitment by the peroxisome proliferator-activated receptor gamma (PPAR gamma): non-selective agonists. [Related pubchem assays: 1297, 1032 ]; type: functional
Fatty acid synthase [12] = molecular target: T4, Fatty acid synthase (Homo sapiens, UniProt P49327); assay: inhibition of human FAS-TE enzyme activity – biochemical, endpoint fluorescence intensity, uHTS hits, dose response (AID 624327); type: functional;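 note: fluorescence from hydrolysis of an O-methyl fluorescein acyl ester substrate by the enzyme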
Fatty acid synthase [13] = molecular target: T4, Fatty acid synthase; assay: inhibition of human FAS-TE enzyme activity – biochemical, kinetic fluorescence intensity, dose response (AID 624326); type: functional;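 note: rate of fluorescence rise from hydrolysis of a fluorogenic O-methyl fluorescein ester substrate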
[14] = molecular target: T5, Short transient receptor potential channel 4 (Mus musculus, UniProt Q9QUQ5); assay: block of DAMGO-driven TRPC4 calcium entry – cell-based, HEK293 TRPC4/mu-opioid, Fluo-4 calcium, dose response (AID 434942); type: functional;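 note: potency of inhibitors blocking the TRPC4 calcium response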
T5 sequence (Q9QUQ5 whole entry): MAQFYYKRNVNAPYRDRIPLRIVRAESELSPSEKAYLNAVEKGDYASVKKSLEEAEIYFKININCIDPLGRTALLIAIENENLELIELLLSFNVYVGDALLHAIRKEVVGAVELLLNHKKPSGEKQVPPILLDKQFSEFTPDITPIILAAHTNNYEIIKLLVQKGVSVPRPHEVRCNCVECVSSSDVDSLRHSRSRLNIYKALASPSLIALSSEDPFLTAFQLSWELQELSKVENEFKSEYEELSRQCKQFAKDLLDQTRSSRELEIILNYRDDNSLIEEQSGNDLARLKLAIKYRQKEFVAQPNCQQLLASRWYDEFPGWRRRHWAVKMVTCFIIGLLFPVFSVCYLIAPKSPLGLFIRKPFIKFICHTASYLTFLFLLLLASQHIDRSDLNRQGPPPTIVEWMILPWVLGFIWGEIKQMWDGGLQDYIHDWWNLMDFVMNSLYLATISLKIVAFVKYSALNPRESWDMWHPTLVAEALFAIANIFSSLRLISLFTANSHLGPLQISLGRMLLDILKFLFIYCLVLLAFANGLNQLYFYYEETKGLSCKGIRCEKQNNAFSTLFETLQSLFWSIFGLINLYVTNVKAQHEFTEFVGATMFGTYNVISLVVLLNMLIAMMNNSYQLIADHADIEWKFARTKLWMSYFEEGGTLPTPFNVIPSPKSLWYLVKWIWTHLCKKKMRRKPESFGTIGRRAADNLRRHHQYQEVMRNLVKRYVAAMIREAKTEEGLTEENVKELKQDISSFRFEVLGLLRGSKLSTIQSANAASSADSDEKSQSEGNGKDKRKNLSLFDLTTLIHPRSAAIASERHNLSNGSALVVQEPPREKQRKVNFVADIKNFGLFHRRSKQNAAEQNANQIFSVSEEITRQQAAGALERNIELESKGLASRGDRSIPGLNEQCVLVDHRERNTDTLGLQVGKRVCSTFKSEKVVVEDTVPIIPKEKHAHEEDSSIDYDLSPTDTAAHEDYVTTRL

[15] = molecular target: T5, Short transient receptor potential channel 4; assay: calcium entry via TRPC4 opening agents – cell-based, HEK293 TRPC4/mu-opioid, Fluo-4 calcium, dose response (AID 434937); type: functional

Genome polyprotein, sequence (P29990 2492-3391 limits assumed): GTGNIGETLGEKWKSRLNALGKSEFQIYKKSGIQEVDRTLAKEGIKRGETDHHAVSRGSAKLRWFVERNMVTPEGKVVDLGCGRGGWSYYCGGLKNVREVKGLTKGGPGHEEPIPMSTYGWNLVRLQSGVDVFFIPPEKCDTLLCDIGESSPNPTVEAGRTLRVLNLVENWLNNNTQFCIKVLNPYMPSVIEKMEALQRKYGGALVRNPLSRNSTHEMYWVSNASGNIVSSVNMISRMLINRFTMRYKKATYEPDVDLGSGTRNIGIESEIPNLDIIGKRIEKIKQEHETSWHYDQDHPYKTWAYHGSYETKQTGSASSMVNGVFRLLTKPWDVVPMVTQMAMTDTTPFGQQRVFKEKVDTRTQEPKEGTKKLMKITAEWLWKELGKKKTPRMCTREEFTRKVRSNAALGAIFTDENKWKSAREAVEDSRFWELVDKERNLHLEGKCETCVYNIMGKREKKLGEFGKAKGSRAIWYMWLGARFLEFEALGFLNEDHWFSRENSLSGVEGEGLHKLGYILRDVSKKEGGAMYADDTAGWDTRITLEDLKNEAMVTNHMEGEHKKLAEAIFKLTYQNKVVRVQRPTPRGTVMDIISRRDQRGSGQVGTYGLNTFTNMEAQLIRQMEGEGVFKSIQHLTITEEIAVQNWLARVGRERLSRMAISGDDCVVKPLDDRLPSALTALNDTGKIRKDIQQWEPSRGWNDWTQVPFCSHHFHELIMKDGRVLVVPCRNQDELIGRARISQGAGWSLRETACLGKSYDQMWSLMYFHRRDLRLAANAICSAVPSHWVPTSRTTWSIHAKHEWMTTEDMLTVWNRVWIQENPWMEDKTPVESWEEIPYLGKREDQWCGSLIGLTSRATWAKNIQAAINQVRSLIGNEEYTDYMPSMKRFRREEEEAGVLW
T4 sequence (P49327 whole entry): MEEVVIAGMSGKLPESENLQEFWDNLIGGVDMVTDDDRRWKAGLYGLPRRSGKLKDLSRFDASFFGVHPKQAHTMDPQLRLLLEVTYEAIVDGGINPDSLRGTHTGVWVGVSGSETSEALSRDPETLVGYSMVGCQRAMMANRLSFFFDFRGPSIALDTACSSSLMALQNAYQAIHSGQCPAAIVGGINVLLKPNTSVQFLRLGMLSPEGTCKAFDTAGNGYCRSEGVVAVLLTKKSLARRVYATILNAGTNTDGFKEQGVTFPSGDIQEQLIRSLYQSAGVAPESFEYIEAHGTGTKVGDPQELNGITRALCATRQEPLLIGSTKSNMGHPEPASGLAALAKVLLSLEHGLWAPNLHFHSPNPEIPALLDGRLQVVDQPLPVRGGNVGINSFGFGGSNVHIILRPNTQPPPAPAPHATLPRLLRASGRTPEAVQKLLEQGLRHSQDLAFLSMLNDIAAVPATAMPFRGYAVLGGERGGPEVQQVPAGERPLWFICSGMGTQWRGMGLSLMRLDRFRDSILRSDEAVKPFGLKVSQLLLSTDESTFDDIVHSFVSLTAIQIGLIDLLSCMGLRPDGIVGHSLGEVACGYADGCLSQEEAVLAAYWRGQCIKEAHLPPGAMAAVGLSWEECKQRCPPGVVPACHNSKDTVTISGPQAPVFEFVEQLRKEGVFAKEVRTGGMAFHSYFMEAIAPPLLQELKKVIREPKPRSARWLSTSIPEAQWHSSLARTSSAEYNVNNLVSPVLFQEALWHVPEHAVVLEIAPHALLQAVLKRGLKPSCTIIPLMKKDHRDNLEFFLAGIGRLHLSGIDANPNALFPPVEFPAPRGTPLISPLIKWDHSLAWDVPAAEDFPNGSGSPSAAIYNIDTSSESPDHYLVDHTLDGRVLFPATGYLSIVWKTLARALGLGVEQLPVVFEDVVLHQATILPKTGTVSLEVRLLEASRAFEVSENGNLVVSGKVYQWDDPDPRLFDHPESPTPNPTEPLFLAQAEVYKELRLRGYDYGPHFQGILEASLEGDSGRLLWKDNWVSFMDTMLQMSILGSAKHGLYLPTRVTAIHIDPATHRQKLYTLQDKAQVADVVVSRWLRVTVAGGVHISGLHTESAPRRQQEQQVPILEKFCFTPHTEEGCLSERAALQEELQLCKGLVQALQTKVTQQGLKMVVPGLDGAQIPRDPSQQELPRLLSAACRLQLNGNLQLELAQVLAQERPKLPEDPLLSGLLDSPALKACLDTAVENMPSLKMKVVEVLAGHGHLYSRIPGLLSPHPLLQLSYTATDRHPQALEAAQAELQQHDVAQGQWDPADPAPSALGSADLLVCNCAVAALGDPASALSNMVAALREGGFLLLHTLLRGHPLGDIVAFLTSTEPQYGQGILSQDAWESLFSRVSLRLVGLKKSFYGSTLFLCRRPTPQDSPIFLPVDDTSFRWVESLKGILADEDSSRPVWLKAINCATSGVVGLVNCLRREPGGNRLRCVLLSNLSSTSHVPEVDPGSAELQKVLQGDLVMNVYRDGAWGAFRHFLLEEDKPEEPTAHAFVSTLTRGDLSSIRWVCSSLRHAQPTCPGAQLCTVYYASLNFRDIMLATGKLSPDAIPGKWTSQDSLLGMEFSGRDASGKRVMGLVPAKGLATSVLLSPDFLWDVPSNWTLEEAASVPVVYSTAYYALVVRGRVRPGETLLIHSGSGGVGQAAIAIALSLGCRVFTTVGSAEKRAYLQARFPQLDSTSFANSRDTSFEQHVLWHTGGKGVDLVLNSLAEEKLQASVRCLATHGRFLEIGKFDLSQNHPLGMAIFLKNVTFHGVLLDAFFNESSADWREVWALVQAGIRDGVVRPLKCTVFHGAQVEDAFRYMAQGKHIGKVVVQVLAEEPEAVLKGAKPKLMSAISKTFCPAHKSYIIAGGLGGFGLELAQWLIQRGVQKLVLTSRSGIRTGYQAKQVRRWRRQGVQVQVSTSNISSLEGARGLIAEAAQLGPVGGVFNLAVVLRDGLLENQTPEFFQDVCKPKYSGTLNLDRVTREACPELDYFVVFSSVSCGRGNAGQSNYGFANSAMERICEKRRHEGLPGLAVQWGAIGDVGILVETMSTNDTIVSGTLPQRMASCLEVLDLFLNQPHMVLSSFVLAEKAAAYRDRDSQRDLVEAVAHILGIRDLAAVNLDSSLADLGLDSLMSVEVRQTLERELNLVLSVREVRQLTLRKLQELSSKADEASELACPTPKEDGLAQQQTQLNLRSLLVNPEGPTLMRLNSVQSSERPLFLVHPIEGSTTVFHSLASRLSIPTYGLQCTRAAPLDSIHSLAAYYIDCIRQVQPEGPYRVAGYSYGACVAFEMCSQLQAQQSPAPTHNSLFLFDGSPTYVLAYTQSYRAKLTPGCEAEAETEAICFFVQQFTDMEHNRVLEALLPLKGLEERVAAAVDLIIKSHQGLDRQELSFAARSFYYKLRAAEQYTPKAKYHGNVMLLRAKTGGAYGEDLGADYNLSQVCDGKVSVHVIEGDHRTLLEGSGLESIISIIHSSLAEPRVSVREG
Luciferin 4-monooxygenase, sequence (P08659 whole entry): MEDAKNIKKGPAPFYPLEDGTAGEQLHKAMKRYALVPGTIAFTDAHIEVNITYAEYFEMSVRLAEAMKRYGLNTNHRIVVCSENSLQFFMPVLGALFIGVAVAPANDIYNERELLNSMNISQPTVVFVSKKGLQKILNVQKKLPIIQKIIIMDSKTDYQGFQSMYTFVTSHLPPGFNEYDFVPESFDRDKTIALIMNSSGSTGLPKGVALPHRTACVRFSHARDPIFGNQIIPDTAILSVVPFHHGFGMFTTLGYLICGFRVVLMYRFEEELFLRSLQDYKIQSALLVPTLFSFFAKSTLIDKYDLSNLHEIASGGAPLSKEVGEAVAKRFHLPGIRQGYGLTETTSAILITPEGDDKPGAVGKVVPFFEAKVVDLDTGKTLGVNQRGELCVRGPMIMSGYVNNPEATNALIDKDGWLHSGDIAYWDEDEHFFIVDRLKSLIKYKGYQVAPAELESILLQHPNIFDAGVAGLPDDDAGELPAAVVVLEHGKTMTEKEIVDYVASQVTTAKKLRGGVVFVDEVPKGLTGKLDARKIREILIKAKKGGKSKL
Cytochrome P450 2C19, sequence (P33261 whole entry): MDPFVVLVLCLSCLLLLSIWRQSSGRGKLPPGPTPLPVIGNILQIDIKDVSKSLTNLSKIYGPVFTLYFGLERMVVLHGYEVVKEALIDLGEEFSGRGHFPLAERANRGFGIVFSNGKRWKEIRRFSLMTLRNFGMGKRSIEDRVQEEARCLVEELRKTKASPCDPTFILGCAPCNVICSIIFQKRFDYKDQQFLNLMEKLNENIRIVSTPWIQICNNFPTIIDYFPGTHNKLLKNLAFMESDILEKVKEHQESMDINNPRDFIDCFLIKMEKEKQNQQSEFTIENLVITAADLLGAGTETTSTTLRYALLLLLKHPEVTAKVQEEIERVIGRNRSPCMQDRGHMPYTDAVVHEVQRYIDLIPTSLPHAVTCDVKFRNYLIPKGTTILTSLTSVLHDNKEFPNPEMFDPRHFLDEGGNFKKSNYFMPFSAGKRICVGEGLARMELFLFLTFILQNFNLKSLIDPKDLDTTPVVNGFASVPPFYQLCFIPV

Q: Which IC50 (Genome polyprotein) does the source give for Cc1ccc(S(=O)(=O)Nc2nc(-c3ccc(F)cc3)cs2)cc1 here?
A: 70.6 µM (active)

Q: With C/C=C/c1ccc(OCc2cc(=O)n3cc(C)ccc3n2)c(OC)c1 as the compound, how does the EC50 [1] read?
A: > 50 µM (active)

Q: What about the EC50 [2] of the same compound?
A: > 112 µM (not active)

Q: What about the EC50 [3] of the same compound?
A: 58.2 µM (active)

Q: With COc1ccccc1Nc1nc(NCCCN(C)C)nc(N)c1[N+](=O)[O-] as the compound, how does the EC50 [4] read?
A: > 195 µM (not active)

Q: What about the AC50 [5] of the same compound?
A: 11.1 µM (active)

Q: What about the AC50 [6] of the same compound?
A: 5.59 µM (active)

Q: Which results are given for CCOC(=O)N/N=C\c1ccc([N+](=O)[O-])o1?
A: EC50 [1]: > 50 µM (active); EC50 [7]: 0.542 µM (active); EC50 [8]: > 30 µM (not active); AC50 (Cytochrome P450 2C19): 25.1 µM (inconclusive)

Q: Which EC50 [9] does the source give for COc1cc(/C=C(\C#N)C(=O)Nc2ccccc2C(=O)O)cc(Cl)c1OC here?
A: > 79.4 µM (inactive)

Q: What about the EC50 [10] of the same compound?
A: 8.27 µM (active)

Q: And the EC50 [11]?
A: > 79.4 µM (not active)

Q: And the IC50 (Genome polyprotein)?
A: 60.6 µM (active)

Q: For Cc1cccc(C(=O)NCCC(=O)Nc2ccc(F)c([N+](=O)[O-])c2)c1, which EC50 [1] is on record?
A: > 50 µM (active)

Q: And the IC50 (Fatty acid synthase [12])?
A: 12.3 µM (active)

Q: What about the IC50 (Fatty acid synthase [13]) of the same compound?
A: 9.57 µM (active)

Q: For Cc1ccc(C)c2c(N)c3c(nc12)CCCCC3.O=C(O)c1cncc(Br)c1, which EC50 [14] is on record?
A: 0.944 µM (active)

Q: Which EC50 [14] does the source give for CCOc1ccccc1-n1c(SCC(=O)Nc2nccs2)nnc1-c1ccoc1C here?
A: 1.5 µM (active)

Q: For O=C(CSc1nc(=O)n(CCN2CCOCC2)c2c1CCC2)Nc1ccc(OC(F)(F)F)cc1, which EC50 [14] is on record?
A: 7.5 µM (active)

Q: For Cc1ccc(S(=O)(=O)NCCC(=O)NCC(c2ccco2)N2CCCCC2)cc1C (stereo not drawn), which EC50 [14] is on record?
A: 0.168 µM (active)

Q: And the EC50 [15]?
A: 0.944 µM (active)
